Reference: patent publication US7569554B2, “Synergistic treatment of cancer using immunomers in conjunction with therapeutic agents” (Idera Pharmaceuticals, Inc., priority 2003, dated 2009)

Experiments:
[1] = system: CT26.WT; assay: Peritoneal disseminated CT26.WT tumor, survival; format: in vivo, mouse; conditions: peritoneal administration, 1 mg/kg; FIG. 17B
Method: (§1) For peritoneal disseminated tumor model, 3×10^5 CT26.WT or CT26.CL25 cells and 5×10^4 B16.F0 cells were injected i.p to BALB/c or C57BL/6 mice respectively. […] Mice were checked daily for tumor growth and for survival. Each dose group had 6 to 10 mice.

[2] = system: CD69+ and CD86+ cells; assay: Activation of CD69+ and CD86+ cells in peripheral blood; format: in vivo, mouse; conditions: docetaxel 30 mg/kg days 1 and 3, IMO 2 5 mg/kg days 1, 3, 5, 7; FIG. 24C
[3] = system: CT26.CL25 colon tumor; assay: Subcutaneous CT26.CL25 colon tumor in BALB/c mice; format: in vivo, mouse; conditions: day 24, compared with non-CpG DNA treated mice; 1 mg/kg peritumoral
Method: (§2) For subcutaneous solid tumor models, 10^6 CT26.CL25 cells/mouse or 5×10^5 B16.F0 cells/mouse in 100 μl of PBS were implanted into BALB/c or C57BL/6 mice in the lower right flank. The tumor size reached to 50 to 200 mg on day 6 for CT26.CL25 and on day 8 for B16.F0 post tumor inoculation. The tumor bearing mice were then treated with peritumoral injection of IMO compounds or non-CpG DNA control at a dose of 1 mg/kg every other day for 10 times. Tumor growth was recorded with the use of calipers, by measuring the long and short diameters of the tumor. Tumor volumes were measured with a caliper and the formula (0.5×length×width^2) was applied to determine tumor growth kinetics.
The antitumor activity of IMO compounds in a murine colon carcinoma CT26.CL25 model was evaluated. BALB/c mice bearing CT26.CL25 subcutaneous solid tumors were treated with 1 mg/kg IMO compounds by peritumoral administration every other day for 10 times starting on day 6 following tumor inoculation.

[4] = system: Her-2 overexpressing human breast tumors (BT474); assay: Her-2 overexpressing human breast tumors (BT474) in nude mice, combination with Herceptin; format: in vivo, mouse; conditions: compared to the PBS control group; Herceptin 10 mg/kg i.p, IMO 1 mg/kg peritumoral, twice a week for 6 weeks; FIG. 29
[5] = system: CT26.CL25; assay: Peritoneal disseminated CT26.CL25 tumor, survival; format: in vivo, mouse; conditions: peritoneal administration, 1 mg/kg; FIG. 17C
Method: as §1

[6] = system: CT26.CL25 tumor cells; assay: Adoptive transfer of splenocytes, CT26.CL25 challenge; format: in vivo, mouse; conditions: FIG. 21A
Excerpt: (§3) To study adoptive immune cell transfer, BALB/c mice were adoptively i.p. transferred with 5×10^6 of syngeneic splenocytes either from naïve BALB/c mice or from IMO treated long term survivors bearing CT26.WT or CT26.CL25, the mice (5/group) were then cross challenged i.p. with 3×10^5 CT26.WT, CT26.CL25 or 4T1 cells on day 3.

[7] = system: 4T1 mammary carcinoma; assay: Rechallenge of long term survivors with 4T1; format: in vivo, mouse; conditions: FIG. 20C
Excerpt: (§4) Long term survivors (n=5) of IMO compound treated mice with CT26.WT or CT26.CL25 peritoneal tumor were rechallenged i.p. or i.v. with 5×10^5 of the parental tumor cells without any further treatment. To evaluate the specificity of the IMO induced antitumor response in tumor bearing mice, these long term survivors (n=5) were also rechallenged with syngeneic, non-organ-related mammary tumor 4T1 (5×10^5). For i.v. rechallenged groups, mice were sacrificed on day 13, lungs were harvested and lung metastases were counted.

[8] = system: 4T1 breast tumor; assay: 4T1 breast tumor in BALB/c mice, combination with doxorubicin; format: in vivo, mouse; conditions: IMO 2 1 mg/kg peritumoral, doxorubicin 30 mg/kg i.p; FIG. 24A
Method: For the 4T1 tumor models, 5×10^5 cells/mouse in. 100 μl PBS were implanted into BALB/c mice in the lower right flank. On day 5 when the average tumor size reached 50 mm^2, the mice were given i.p injections of 30 mg/kg doxorubicin (Bedford lab, Bedford, Ohio) for three times on days 5, 6 and 7. IMO 2 (1 mg/kg) dissolved in 100 μl PBS was administrated by peritumoral injection at twice a week interval for a total of six times.

[9] = system: BALB/c mice; assay: In vivo serum cytokine induction; design: species or system mouse
Method: To assess serum cytokine levels, BALB/c mice (n=5) were injected intraperitoneally (i.p), subcutaneously (s.c) or intramuscularly (i.m) with IMO compounds at 10 mg/kg (single dose). Sera was collected by retro-orbital bleeding at 4 hrs of IMO administration and determined IL-112 and IL-6 by sandwich ELISA. Cytokine antibodies and standards were purchased from PharMingen (San Diego, Calif.).
To evaluate the immunopharmacological effects in vivo, IMO compounds, CpG immunomers, and non-CpG oligos were administered to BALB/c mice i.p, s.c or i.m at a dose of 10 mg/kg and their serum was evaluated for IL-12 and IL-6 after 4 hrs.

[10] = system: CT26.WT and CT26.CL25 tumors; assay: Rechallenge of long term survivors with CT26.WT or CT26.CL25; format: in vivo, mouse
Excerpt: as §4

[11] = Total serum IgG1 and IgG2a in B16.F0 tumor bearing C57BL/6 mice; format: in vivo, mouse; conditions: compared with control non-CpG DNA
Method: For the analysis of serum antibodies, 96 well plates were incubated at room temperature for 3 hours with β-gal protein (Calbiochem Novabiochem, Pasadena, Calif.) at 2 μg/ml in phosphate buffered saline (PBS). The solid phase was incubated overnight at 4° C. with normal mouse serum (NMS) or antiserum, or β-gal specific monoclonal Ab (Calbiochem Novabiochem, Pasadena, Calif.) followed by an incubation with horseradish peroxidase (HRP)-conjugated antibodies specific for mouse IgG (H+L). For isotype analysis, HRP-labelled goat anti-mouse IgG1 and IgG2a (Southern Biotechnology, Birmingham, Ala.) were used. The binding of antibodies was measured as absorbance at 405 nm after reaction of the immune complexes with ABTS substrate (Zymed, San Francisco, Calif.).

[12] = In vitro cytokine induction profiles of IMO compounds (FIG. 16); format: cell-based
[13] = system: 4T1 tumor cells; assay: Adoptive transfer of splenocytes, 4T1 challenge; format: in vivo, mouse; conditions: FIG. 21B
Excerpt: as §3

[14] = system: Her-2 overexpressing human breast tumors (BT474); assay: Example 23 tumor model, Rituxan and/or IMO 2; format: in vivo, mouse; conditions: Rituxan days 5, 7, 9, 11; IMO 2 days 5, 7, 9, 11, 13; FIG. 30
Method: Nude mice bearing subcutaneously implanted Her-2 overexpressing human breast tumors (BT474). Tumor bearing mice were treated by intraperitoneal injections of Rituxan on days 5, 7, 9 and 11 and/or IMO 2 on days 5, 7, 9, 11 and 13.

[15] = system: B16.F0 melanoma; assay: B16.F0 melanoma in wt, IL-6 ko and IL-12 ko C57BL/6 mice; format: in vivo, mouse; conditions: FIG. 23
Excerpt: Female BALB/c (H-2^d), C57BL/6, and IL-6 and IL-12 knockout (ko) (both ko on a C57BL/6 background) mice 5-8 weeks of age, were purchased from Jackson Laboratory (Bar Harbor, Me.). CT26.WT (ATCC, Rockville, Md.) is a carcinogen-induced BALB/c undifferentiated colon carcinoma. CT26.CL25 (ATCC, Rockville, Md.) is a subclone of CT26.WT that has been transduced with Escherichia coli β-gal gene. 4T1 is a mammary adenocarcinoma cell line in BALB/c mice. B16.F0 is a C57BL/6 derived melanoma (ATCC). CT26.WT and 4T1 cells were cultured in RPMI 1640, 10% heat-inactivated fetal bovine serum (FBS, Atlas Biologicals, Fort Colins, Colo.), 2 mM L-glutamine, 100 μg/ml streptomycin, 100 U/ml penicillin (Mediatech, Va.). CT26.CL25 is maintained in the same medium plus 400 μg/ml G418 sulfate (Life Technologies, Grand Island, N.Y.). B 16.F0 cells were grown in DMEM containing 10% FBS and antibiotics.
For peritoneal disseminated tumor model, 3×10^5 CT26.WT or CT26.CL25 cells and 5×10^4 B16.F0 cells were injected i.p to BALB/c or C57BL/6 mice respectively. IMO compounds or non-CpG DNA (2.5 mg/kg) were administrated i.p. twice per week starting on day 1 for a total of 5 times. Mice were checked daily for tumor growth and for survival. Each dose group had 6 to 10 mice.

[16] = system: B16.F0 melanoma; assay: Subcutaneous B16.F0 melanoma in C57BL/6 mice; format: in vivo, mouse; conditions: 1 mg/kg peritumoral every other day for 10 times from day 8; FIG. 22A
Method: as §2
IMO 2 was further tested for its antitumor activity in mice bearing B 16.F0 murine melanoma. C57BL/6 mice bearing B16.F0 melanoma were treated with 1 mg/kg IMO 2 by peritumoral administration every other day for 10 times starting on day 8 following tumor inoculation.

[17] = Intramuscular (i.m), 10 mg/kg, 4 hrs
[18] = Intraperitoneal (i.p), 10 mg/kg, 4 hrs
[19] = Subcutaneous (s.c), 10 mg/kg, 4 hrs

IMO 2: IMO compound of FIG. 15 (SEQ ID NO 24) containing a synthetic CpR motif, mouse-specific immunostimulatory motif (DNA TCTGACNTTCT; synthetic CpR motif, chemistry not fully specified)
Mice survival [1]: marked increase of mice survival | Percentage of CD69+ and CD86+ cells [2]: significant increase in the percentage of CD69+ and CD86+cells | Average tumor growth inhibition [3]: 85% | Tumor growth inhibition [4]: 65% | Mice survival [5]: marked increase of mice survival | Protection by transferred splenocytes against CT26.CL25 challenge [6]: protective against a lethal tumor challenge | Protection against 4T1 mammary carcinoma challenge [7]: not protected | Inhibition of 4T1 tumor growth [8]: strong inhibition | Serum IL-6 induction ([9]; 10 mg/kg, all three routes of administration, 4 hrs): significantly lower serum IL-6 | Serum IL-12 secretion in mice ([9]; 4 hr after administration, FIG. 25B): induced IL-12 secretion | IL-6 (serum) [9, 17]: 1.2 ± 0.1 ng/mL | IL-12 (serum) [9, 17]: 87.9 ± 3.2 ng/mL | IL-6 (serum) [9, 18]: 2.5 ± 0.2 ng/mL | IL-12 (serum) [9, 18]: 51.7 ± 0.9 ng/mL | IL-6 (serum) [9, 19]: 2.3 ± 0.4 ng/mL | IL-12 (serum) [9, 19]: 136.9 ± 17 ng/mL | Rejection of pulmonary metastases after i.v. inoculation ([10]; data not shown): able to reject pulmonary metastases of the same tumor | Protection against i.p rechallenge ([10]; mice cleared of CT26.CL25 peritoneal tumor, FIGS. 20A and B): rejected i.p rechallenge with CT26.WT and CT26.CL25 tumors | Total IgG1 levels ([11]; FIG. 22B): decrease or no change | Total circulating serum IgG2a ([11]; FIG. 22C): significant increase | IL-6 production in vitro [12]: lower IL-6 production | IL-12 secretion in vitro [12]: strong IL-12 secretion | Protection by transferred splenocytes against 4T1 challenge [13]: did not extend to 4T1 tumor cell challenge | Tumor growth [14]: significantly inhibited | Tumor growth ([15]; IL-6 ko C57BL/6 mice): significant reduction in tumor growth | Tumor growth ([15]; wt C57BL/6 mice): significant reduction in tumor growth | Tumor growth inhibition [16]: 71%
